The supplement of paper PMC10307832

What was measured:
Test in all cases: relative viability (nuclei count vs DMSO), 5 days (fraction); higher = more cells survive
[1] = compound: C[C@]12O[C@H](C[C@]1(O)CO)n1c3ccccc3c3c4c(c5c6ccccc6n2c5c31)CNC4=O [Lestaurtinib] + Nc1nc2[nH]cc(CCc3ccc(C(=O)N[C@@H](CCC(=O)O)C(=O)O)cc3)c2c(=O)[nH]1 [Pemetrexed] (partner 0.2 µM)
In short: (§1)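 Lung cancer cell lines, seeded in 1536-well plates, were treated the following day by pin tool with a single drug or with five library-drug doses (not always all listed) in √10 steps on top of a fixed anchor-drug dose. Cells were fixed and nuclei stained in one step after 5 days, and nuclei were counted. Relative viability is the nuclei count for treated wells divided by that for vehicle wells, reported as medians of duplicate plates.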

TPCA-1 + Palbociclib = compound: C1=CC(=CC=C1C2=CC(=C(S2)NC(=O)N)C(=O)N)F [TPCA-1] + CC(=O)c1c(C)c2cnc(Nc3ccc(N4CCNCC4)cn3)nc2n(C2CCCC2)c1=O [Palbociclib] (partner 0.5 µM)
In short: as §1

[2] = compound: C1/C(=C\C2=CC=CS2)/C(=O)/C(=C/C3=CC=CS3)/C1 + C[C@]1(O)C[C@@H](c2nc(-c3ccc4ccc(-c5ccccc5)nc4c3)c3c(N)nccn32)C1 [Linsitinib] (partner 1 µM)
In short: as §1

[3] = compound: C1/C(=C\C2=CC=CS2)/C(=O)/C(=C/C3=CC=CS3)/C1 + CC(C)C[C@H](NC(=O)[C@H](Cc1ccccc1)NC(=O)c1cnccn1)B(O)O [Bortezomib] (partner 0.002 µM)
In short: as §1

Cell Line | relative viability ([1]; first compound 0.005 µM) | relative viability ([1]; first compound 0.01581 µM) | relative viability ([1]; first compound 0.05 µM) | relative viability ([1]; first compound 0.1581 µM) | relative viability ([1]; first compound 0.5 µM) | relative viability (TPCA-1 + Palbociclib; first compound 0.04 µM) | relative viability (TPCA-1 + Palbociclib; first compound 0.1265 µM) | relative viability (TPCA-1 + Palbociclib; first compound 0.4 µM) | relative viability (TPCA-1 + Palbociclib; first compound 1.265 µM) | relative viability (TPCA-1 + Palbociclib; first compound 4 µM) | relative viability ([2]; first compound 0.2 µM) | relative viability ([2]; first compound 0.6325 µM) | relative viability ([2]; first compound 2 µM) | relative viability ([2]; first compound 6.325 µM) | relative viability ([2]; first compound 20 µM) | relative viability ([3]; first compound 0.2 µM) | relative viability ([3]; first compound 0.6325 µM) | relative viability ([3]; first compound 2 µM) | relative viability ([3]; first compound 6.325 µM) | relative viability ([3]; first compound 20 µM)
NCI-H2405 | 1.01 | 1.25 | 1.03 | 0.887 | 0.374 | 0.565 | 0.507 | 0.525 | 0.446 | 0.478 | 0.992 | 1.09 | 1.03 | 0.803 | 1.01 | 1.03 | 0.944 | 1.01 | 0.631 | 1
LCLC-103H | 0.418 | 0.484 | 0.469 | 0.472 | 0.412 | 0.52 | 0.519 | 0.465 | 0.473 | 0.494 | 1.12 | 1.16 | 1.15 | 0.975 | 0.995 | 1.1 | 0.998 | 1.08 | 1 | 1.07
NCI-H460 | 0.0559 | 0.0645 | 0.0633 | 0.0509 | 0.0531 | 0.187 | 0.086 | – | 0.16 | 0.136 | 0.838 | 0.976 | 0.694 | – | 0.728 | 1.12 | 1.26 | 1.17 | – | 1.09
NCI-H1755 | 0.478 | 0.463 | 0.41 | 0.36 | 0.353 | 0.457 | 0.454 | 0.459 | 0.431 | 0.399 | 1.06 | 1.07 | 1.04 | 0.818 | 0.939 | 1.01 | 0.897 | 1.03 | 0.853 | 0.928
NCI-H1734 | 0.439 | 0.392 | 0.402 | 0.397 | 0.178 | 0.352 | 0.313 | 0.388 | 0.363 | 0.307 | 0.902 | 0.931 | 0.947 | 0.782 | 0.875 | 1.03 | 0.953 | 0.906 | 0.805 | 0.881
EPLC-272H | 0.308 | 0.349 | 0.452 | 0.189 | 0.0958 | 0.355 | 0.3 | 0.328 | 0.326 | 0.297 | 1.29 | 1.07 | 1.22 | 1.19 | 1.03 | 0.957 | 0.903 | 0.93 | 1.01 | 0.839
NCI-H2126 | 0.757 | 0.685 | 0.66 | 0.666 | 0.476 | 0.388 | 0.382 | 0.364 | 0.355 | 0.3 | 0.673 | 0.698 | 0.754 | 0.553 | 0.709 | 1.16 | 1.1 | 1.21 | 0.994 | 1.1
